Assay results from patent US8835640B1, “Nicotine derivatives” (priority 2011, dated 2014).
Values after ≈ are worked out from the molar mass of the structure shown.

Columns and labels:
[1] = tested on: fungal cultures (Candida albicans & Cryptococcus neoformans); test: Kirby-Bauer disc diffusion, fungi; assay type: cell-based
Male Wistar rats = test: Eddy Hot Plate method; assay type: in vivo; conditions: 0.5 mg/kg and 1 mg/kg s.c., 55±0.5° C., compared to pentazocine 20 mg/kg s.c.
Method: Male Wistar rats initially weighing 180-200 g were divided into the following groups of six animals each as follows: • Experiment-I: • 1. Group-I: Control—10% Dimethyl sulfoxide (DMSO) (0.5 ml s.c) • 2. Group-II: Standard—Pentazocine (20 mg/kg body weight, s.c.) • 3. Group-III: Compound-ARP100102 (0.5 mg/kg body weight, s.c.) • Experiment-II: • Same as Experiment I except Group III dosage was 1 mg/kg body weight. • The hot plate method was originally developed by Woolfe and MacDonald (1944). The paws of rat are very sensitive to heat at temperatures which are not damaging to the skin. The response is in the form of jumping, withdrawal of paws or licking of the paws (Eddy and Leimback, 1953). The animals were placed on Eddy's hot plate at a temperature of 55±0.5° C. […] Reaction time and the type of response were noted using a stopwatch. The latency was recorded before and after 30, 60, 90 and 120 minutes following s.c. injection of test compounds (0.5 mg and 1 mg·kg), standard drug (pentazocine) and control vehicle respectively. The dose selection of the test compounds was based on the literature of nicotine (0.32-1.6 mg/kg s.c.). Average reaction time was then calculated and the percentage variation calculated using the following ratio: Percentage protection=Drug latency−Baseline latency×100Baseline latency

Corynebacterium = test: Kirby Bauer disc diffusion, Corynebacterium; assay type: cell-based
Streptococcus mutans = test: Kirby Bauer disc diffusion, Streptococcus mutans; assay type: cell-based
[2] = tested on: M. tuberculosis (H37RV Strain) ATCC 25177; test: Anti-TB activity, microplate Alamar Blue assay (MABA); assay type: cell-based, Mycobacterium Tuberculosis; conditions: for MIC: Mycobacterium tuberculosis, 120 h, read-out: MIC (minimum inhibition concentration); for MIC (minimum inhibition concentration): lowest drug concentration preventing colour change blue to pink, 37° C., five days, tested 100 to 0.2 μg/ml
[3] = tested on: Gram positive bacteria (Staphylococcus aureus, Enterococcus faecalis), Gram negative bacteria (E. Coli and Pseudomonas aeruginosa); test: Kirby-Bauer disc diffusion, bacteria; assay type: cell-based
Male Albino Mice = test: Acetic Acid-Induced Writhing Response test; assay type: in vivo
Method: Group-I: Control-Normal saline (0.1 ml i.p./10 gm) • 2. Group-II: Diclofenac (10 mg/kg body weight, i.p.) • 3. Group-V: Compound-ARP100120 (3 mg/kg body weight, i.p.) • The number of writhes (abdominal muscular contractions), stretching of the hind limbs and trunk twisting were counted 5 minutes after the injection of 1% acetic acid (v/v, 0.1 mL/10 g body weight, i.p.). The data collected represented the total number of writhes observed in duration of 10 minutes (5-15 minutes after the injection). Percentage inhibition was then calculated. Percentage inhibition ═(N−N^t/N)×100, where N is the average number of writhing of control group and N^t is the average number of writhing of test group. • Results are as follows: […]

## CC(=O)c1ccc(-c2cncc(C(=O)C3CCN(C)C3=O)c2)s1 (stereo not shown) [ARP100101, 3-(5-(5-acetylthiophen-2-yl)nicotinoyl)-1-methylpyrrolidin-2-one]
[1]; 50 μg
  antifungal activity (zone of inhibition, disc diffusion): exhibit antifungal activity
[1]; 100 μg
  antifungal activity (zone of inhibition, disc diffusion): exhibit antifungal activity

## CN1CCC(C(=O)c2cncc(-c3ccc(F)cc3)c2)C1=O (stereo not shown) [ARP100102, 3-(5-(4-fluorophenyl)nicotinoyl)-1-methylpyrrolidin-2-one]
Male Wistar rats
  analgesic activity (reaction time in hot plate test): demonstrate analgesic activity
Corynebacterium; 50 μg
  antibacterial activity against Corynebacterium (inhibition zone): good antibacterial activity
Corynebacterium; 100 μg
  antibacterial activity against Corynebacterium (inhibition zone): good antibacterial activity
[1]; 5 μg
  antifungal activity (zone of inhibition, disc diffusion): exhibit antifungal activity
[1]; 25 μg
  antifungal activity (zone of inhibition, disc diffusion): exhibit antifungal activity
[1]; 50 μg
  antifungal activity (zone of inhibition, disc diffusion): exhibit antifungal activity
[1]; 100 μg
  antifungal activity (zone of inhibition, disc diffusion): exhibit antifungal activity
Streptococcus mutans; 50 μg
  antibacterial activity against Streptococcus mutans (inhibition zone): good antibacterial activity
Streptococcus mutans; 100 μg
  antibacterial activity against Streptococcus mutans (inhibition zone): good antibacterial activity
[2]
  MIC: ≤ 0.05 µg/mL

## Cc1cccc(-c2cncc(C(=O)C3CCN(C)C3=O)c2)c1 (stereo not shown) [ARP100104, 1-methyl-3-(5-m-tolylnicotinoyl)pyrrolidin-2-one]
[1]; 100 μg
  antifungal activity (zone of inhibition, disc diffusion): exhibit antifungal activity

## CN1CCC(C(=O)c2cncc(-c3ccc(Cl)cc3)c2)C1=O (stereo not shown) [ARP100105, 3-(5-(4-chlorophenyl)nicotinoyl)-1-methylpyrrolidin-2-one]
[3]; 50 μg
  antibacterial activity (zone of inhibition, disc diffusion): both antibacterial and antifungal activity
[3]; 100 μg
  antibacterial activity (zone of inhibition, disc diffusion): both antibacterial and antifungal activity
[1]; 50 μg
  antifungal activity (zone of inhibition, disc diffusion): both antibacterial and antifungal activity
[1]; 100 μg
  antifungal activity (zone of inhibition, disc diffusion): both antibacterial and antifungal activity

## CN1CCC(C(=O)c2cncc(-c3ccc(C=O)cc3)c2)C1=O (stereo not shown) [ARP100106, 4-(5-(1-methyl-2-oxopyrrolidine-3-carbonyl)pyridin-3-yl)benzaldehyde]
[3]; 100 μg
  antibacterial activity (zone of inhibition, disc diffusion): both antibacterial and antifungal activity
[1]; 100 μg
  antifungal activity (zone of inhibition, disc diffusion): both antibacterial and antifungal activity

## COc1ccc(-c2cncc(C(=O)C3CCN(C)C3=O)c2)cc1 (stereo not shown) [ARP100108, 3-(5-(4-methoxyphenyl)nicotinoyl)-1-methylpyrrolidin-2-one]
[1]; 100 μg
  antifungal activity (zone of inhibition, disc diffusion): exhibit antifungal activity

## CN1CCC(C(=O)c2cncc(-c3cccc(F)c3)c2)C1=O (stereo not shown) [ARP100111, 3-(5-(3-fluorophenyl)nicotinoyl)-1-methylpyrrolidin-2-one]
[3]; 100 μg
  antibacterial activity on both gram positive and gram negative bacteria: showed antibacterial activity

## CN1CCC(C(=O)c2cncc(-c3ccc4ccccc4c3)c2)C1=O (stereo not shown) [ARP100119, 1-methyl-3-(5-(naphthalen-2-yl)nicotinoyl)pyrrolidin-2-one]
[1]; 50 μg
  antifungal activity (zone of inhibition, disc diffusion): exhibit antifungal activity
[1]; 100 μg
  antifungal activity (zone of inhibition, disc diffusion): exhibit antifungal activity

## CC(=O)Oc1ccc(-c2cncc(C(=O)C3CCN(C)C3=O)c2)cc1 (stereo not shown) [ARP100120, 4-(5-(1-methyl-2-oxopyrrolidine-3-carbonyl)pyridin-3-yl)phenyl acetate]
[1]; 100 μg
  antifungal activity (zone of inhibition, disc diffusion): exhibit antifungal activity
Male Albino Mice; 3 mg/kg i.p.
  analgesic activity (writhing test): demonstrate analgesic activity

## CN1CCC(C(=O)c2cncc(-c3cccc(C=O)c3)c2)C1=O (stereo not shown) [ARP100121, 3-(5-(1-methyl-2-oxopyrrolidine-3-carbonyl)pyridin-3-yl)benzaldehyde]
[1]; 50 μg
  antifungal activity (zone of inhibition, disc diffusion): exhibit antifungal activity
[1]; 100 μg
  antifungal activity (zone of inhibition, disc diffusion): exhibit antifungal activity

## CCCCc1cncc(C(=O)C2CCN(C)C2=O)c1 (stereo not shown) [ARP100122, 3-(5-butylnicotinoyl)-1-methylpyrrolidin-2-one]
[1]; 100 μg
  antifungal activity (zone of inhibition, disc diffusion): exhibit antifungal activity

## O=C(O)c1cn(C2CC2)c2cc(N3CCNCC3)c(F)cc2c1=O [Ciprofolxacin]
[2]
  MIC (minimum inhibition concentration): 3.125 µg/mL (≈ 9.43 µM)

## O=C(O)Cc1ccccc1Nc1c(Cl)cccc1Cl [Diclofenac, reference compound]
Male Albino Mice; 5-15 minutes after 1% acetic acid i.p., Diclofenac 10 mg/kg i.p., ARP100120 3 mg/kg i.p.
  Number of Writhing: 34.50 ± 1.586
Male Albino Mice; versus control, Diclofenac 10 mg/kg i.p., ARP100120 3 mg/kg i.p.
  Percentage Inhibition (writhing): 26.86%

## CN1CCCC1c1cccnc1 (stereo not shown) [Nicotine]
[3]; 1000 μg/ml
  antibacterial activity (disc diffusion): did not show any antibacterial activity

## NC(=O)c1cnccn1 [Pyrazinamide]
[2]
  MIC: 3.12 µg/mL (≈ 25.4 µM)

## CN[C@@H]1[C@H](O[C@H]2[C@H](O[C@H]3[C@H](O)[C@@H](O)[C@H](N=C(N)N)[C@@H](O)[C@@H]3N=C(N)N)O[C@@H](C)[C@]2(O)C=O)O[C@@H](CO)[C@H](O)[C@H]1O [Steptomycin]
[2]
  MIC (minimum inhibition concentration): 6.25 µg/mL (≈ 10.7 µM)
